ChEMBL document CHEMBL5729352, “Broad spectrum antiviral compositions and methods” (2022)

Assay: Assessing Antiviral Activity Against Human Cytomegalovirus (HCMV): To assess their antiviral activity, some compounds were tested against human cytomegalovirus (HCMV) in vitro. Human […] cells were grown to confluency (˜1.0×10^4 cells/well) in 96-well plate format in Dulbecco's Modified Eagle Medium (DMFM) supplemented with 10% fetal bovine serum (FBS) 2 mM L-glutamine, 0.1 mM non-essential amino acids, 10 mM HEPES, and 100 U/ml each of penicillin and streptomycin and infected with an HCMV variant expressing mCherry tagged pUL99 (the product of late viral UL99 gene) at a multiplicity of 0.01 infectious unit (IU) per cell. Assays were performed in triplicate. One hour later, medium of the cells was replaced with fresh medium containing the indicated compounds at 25, 12.5, 6.25, 3.13, 1.56, 0.78, 0.39 μM or the carrier in which the compounds are dissolved (DMSO). Final concentration of DMSO was 0.5% in each treatment. Virus yield in the culture was determined at 7 days post infection by quantification of fluorescent (mCherry positive) cells in each well by fluorescent microscopy. Results were plotted using CDD Vault (CDD Vault was developed by Collaborative Drug Discovery, Inc., 1633 Bayshore Hwy, Suite 342, Burlingame, Calif. 94010) in order to calculate IC50s.
Type: cell-based

## NC(=O)c1cccc(Cc2cnc(N3CCc4cc5c(cc4C3)OCCO5)s2)c1
  IC50: 8.63 µM
